Activity calls are given as the source filed them. How the calls were made is not given here.

The subject of this data set is CCRIS mutagenicity, Ames/micronucleus/aberration tests. Briefly: CCRIS mutagenicity studies.
Setting [1] is: Test System: AMES SALMONELLA TYPHIMURIUM, Strain/Indicator: TA98, Metabolic Activation: HAMSTER, LIVER, S-9, AROCLOR 1254 (10%), Method: PREINCUBATION
Where [2] appears, read: Test System: AMES SALMONELLA TYPHIMURIUM, Strain/Indicator: TA98, Metabolic Activation: NONE, Method: PREINCUBATION
Setting [3] is: Test System: AMES SALMONELLA TYPHIMURIUM, Strain/Indicator: TA98, Metabolic Activation: RAT, LIVER, S-9, AROCLOR 1254 (10%), Method: PREINCUBATION
[4] abbreviates: Test System: AMES SALMONELLA TYPHIMURIUM, Strain/Indicator: TA100, Metabolic Activation: HAMSTER, LIVER, S-9, AROCLOR 1254 (10%), Method: PREINCUBATION
Where [5] appears, read: Test System: AMES SALMONELLA TYPHIMURIUM, Strain/Indicator: TA100, Metabolic Activation: RAT, LIVER, S-9, AROCLOR 1254 (10%), Method: PREINCUBATION
[6] abbreviates: Test System: AMES SALMONELLA TYPHIMURIUM, Strain/Indicator: TA1535, Metabolic Activation: HAMSTER, LIVER, S-9, AROCLOR 1254 (10%), Method: PREINCUBATION
Setting [7] is: Test System: AMES SALMONELLA TYPHIMURIUM, Strain/Indicator: TA1535, Metabolic Activation: NONE, Method: PREINCUBATION
[8] abbreviates: Test System: AMES SALMONELLA TYPHIMURIUM, Strain/Indicator: TA1535, Metabolic Activation: RAT, LIVER, S-9, AROCLOR 1254 (10%), Method: PREINCUBATION
Setting [9] is: Test System: AMES SALMONELLA TYPHIMURIUM, Strain/Indicator: TA100, Metabolic Activation: NONE, Method: PREINCUBATION

As to `CN(C)c1ccc(N(C)C)cc1`, the mutagenic call reads like this: (End Point: IN VITRO CHROMOSOMAL ABERRATIONS, Test System: CHINESE HAMSTER LUNG CELLS (CHL), Metabolic Activation: NONE) “active; positive (structural changes)”; (End Point: IN VITRO CHROMOSOMAL ABERRATIONS, Test System: CHINESE HAMSTER LUNG CELLS (CHL), Metabolic Activation: RAT, LIVER, S-9, KC-400) “active; positive (structural changes)”; (End Point: IN VITRO CHROMOSOMAL ABERRATIONS, Test System: CHINESE HAMSTER OVARY CELLS (CHO), Metabolic Activation: NONE) “active; positive at highest dose”; (End Point: IN VITRO CHROMOSOMAL ABERRATIONS, Test System: CHINESE HAMSTER OVARY CELLS (CHO), Metabolic Activation: RAT, LIVER, S-9, AROCLOR 1254) “active; positive (structural changes)”; (Test System: AMES SALMONELLA TYPHIMURIUM, Strain/Indicator: TA97, Metabolic Activation: HAMSTER, LIVER, S-9, AROCLOR 1254 (10%), Method: PREINCUBATION) “active; positive”; (Test System: AMES SALMONELLA TYPHIMURIUM, Strain/Indicator: TA97, Metabolic Activation: RAT, LIVER, S-9, AROCLOR 1254 (10%), Method: PREINCUBATION) “active; positive”. In addition, the mutagenic call is, setting by setting: (Test System: AMES SALMONELLA TYPHIMURIUM, Strain/Indicator: TA97, Metabolic Activation: RAT, LIVER, S-9, AROCLOR 1254 (30%), Method: PREINCUBATION) “inactive; negative”; under setting [1], “inactive; negative”; (Test System: AMES SALMONELLA TYPHIMURIUM, Strain/Indicator: TA98, Metabolic Activation: HAMSTER, LIVER, S-9, AROCLOR 1254 (30%), Method: PREINCUBATION) “active; positive”; under setting [2], “inactive; negative”; under setting [3], “inactive; negative”; (Test System: AMES SALMONELLA TYPHIMURIUM, Strain/Indicator: TA98, Metabolic Activation: RAT, LIVER, S-9, AROCLOR 1254 (30%), Method: PREINCUBATION) “inactive; negative”. Besides, the mutagenic call was “active; positive” under setting [4]; “active; positive” (Test System: AMES SALMONELLA TYPHIMURIUM, Strain/Indicator: TA100, Metabolic Activation: HAMSTER, LIVER, S-9, AROCLOR 1254 (30%), Method: PREINCUBATION); “active; positive” under setting [5]; “active; positive” (Test System: AMES SALMONELLA TYPHIMURIUM, Strain/Indicator: TA100, Metabolic Activation: RAT, LIVER, S-9, AROCLOR 1254 (30%), Method: PREINCUBATION); “inactive; negative” under setting [6]; “inactive; negative” (Test System: AMES SALMONELLA TYPHIMURIUM, Strain/Indicator: TA1535, Metabolic Activation: HAMSTER, LIVER, S-9, AROCLOR 1254 (30%), Method: PREINCUBATION). Besides, the mutagenic call is “inactive; negative” under setting [7]; “inactive; negative” under setting [8]; “inactive; negative” (Test System: AMES SALMONELLA TYPHIMURIUM, Strain/Indicator: TA1535, Metabolic Activation: RAT, LIVER, S-9, AROCLOR 1254 (30%), Method: PREINCUBATION).

Regarding `CC(=O)c1ccccn1`, the mutagenic call runs as follows: (Test System: AMES SALMONELLA TYPHIMURIUM, Strain/Indicator: TA98, Metabolic Activation: HAMSTER, LIVER, S-9, AROCLOR 1254, Method: STANDARD PLATE) “inactive; negative”; (Test System: AMES SALMONELLA TYPHIMURIUM, Strain/Indicator: TA98, Metabolic Activation: NONE, Method: STANDARD PLATE) “inactive; negative”; (Test System: AMES SALMONELLA TYPHIMURIUM, Strain/Indicator: TA98, Metabolic Activation: RAT, LIVER, S-9, AROCLOR 1254, Method: STANDARD PLATE) “inactive; negative”; (Test System: AMES SALMONELLA TYPHIMURIUM, Strain/Indicator: TA100, Metabolic Activation: HAMSTER, LIVER, S-9, AROCLOR 1254, Method: STANDARD PLATE) “inactive; negative”; (Test System: AMES SALMONELLA TYPHIMURIUM, Strain/Indicator: TA100, Metabolic Activation: NONE, Method: STANDARD PLATE) “inactive; negative”; (Test System: AMES SALMONELLA TYPHIMURIUM, Strain/Indicator: TA100, Metabolic Activation: RAT, LIVER, S-9, AROCLOR 1254, Method: STANDARD PLATE) “inactive; negative”. Besides, the mutagenic call reads like this: (Test System: AMES SALMONELLA TYPHIMURIUM, Strain/Indicator: TA1535, Metabolic Activation: HAMSTER, LIVER, S-9, AROCLOR 1254, Method: STANDARD PLATE) “inactive; negative”; (Test System: AMES SALMONELLA TYPHIMURIUM, Strain/Indicator: TA1535, Metabolic Activation: NONE, Method: STANDARD PLATE) “inactive; negative”; (Test System: AMES SALMONELLA TYPHIMURIUM, Strain/Indicator: TA1535, Metabolic Activation: RAT, LIVER, S-9, AROCLOR 1254, Method: STANDARD PLATE) “inactive; negative”; (Test System: AMES SALMONELLA TYPHIMURIUM, Strain/Indicator: TA1537, Metabolic Activation: HAMSTER, LIVER, S-9, AROCLOR 1254, Method: STANDARD PLATE) “inactive; negative”; (Test System: AMES SALMONELLA TYPHIMURIUM, Strain/Indicator: TA1537, Metabolic Activation: NONE, Method: STANDARD PLATE) “inactive; negative”; (Test System: AMES SALMONELLA TYPHIMURIUM, Strain/Indicator: TA1537, Metabolic Activation: RAT, LIVER, S-9, AROCLOR 1254, Method: STANDARD PLATE) “inactive; negative”. Moreover, the mutagenic call is, setting by setting: (Test System: AMES SALMONELLA TYPHIMURIUM, Strain/Indicator: TA1538, Metabolic Activation: HAMSTER, LIVER, S-9, AROCLOR 1254, Method: STANDARD PLATE) “inactive; negative”; (Test System: AMES SALMONELLA TYPHIMURIUM, Strain/Indicator: TA1538, Metabolic Activation: NONE, Method: STANDARD PLATE) “inactive; negative”; (Test System: AMES SALMONELLA TYPHIMURIUM, Strain/Indicator: TA1538, Metabolic Activation: RAT, LIVER, S-9, AROCLOR 1254, Method: STANDARD PLATE) “inactive; negative”; (Test System: MOUSE LYMPHOMA, Strain/Indicator: L5178Y (TK+/TK-), Metabolic Activation: NONE, Method: SUSPENSION/PLATE) “active; positive. reevaluation of results: positive”; (Test System: MOUSE LYMPHOMA, Strain/Indicator: L5178Y (TK+/TK-), Metabolic Activation: RAT, LIVER, S-9, AROCLOR 1254, Method: SUSPENSION/PLATE) “active; positive. reevaluation of results: inconclusive”.

Turning to `CCCCCN`, the mutagenic call runs as follows: under setting [1], “inactive; negative”; under setting [2], “inactive; negative”; under setting [3], “inactive; negative”; under setting [4], “inactive; negative”; under setting [9], “inactive; negative”; under setting [5], “inactive; negative”. In addition, the mutagenic call reads like this: under setting [6], “inactive; negative”; under setting [7], “inactive; negative”; under setting [8], “inactive; negative”; (Test System: AMES SALMONELLA TYPHIMURIUM, Strain/Indicator: TA1537, Metabolic Activation: HAMSTER, LIVER, S-9, AROCLOR 1254 (10%), Method: PREINCUBATION) “inactive; negative”; (Test System: AMES SALMONELLA TYPHIMURIUM, Strain/Indicator: TA1537, Metabolic Activation: NONE, Method: PREINCUBATION) “inactive; negative”; (Test System: AMES SALMONELLA TYPHIMURIUM, Strain/Indicator: TA1537, Metabolic Activation: RAT, LIVER, S-9, AROCLOR 1254 (10%), Method: PREINCUBATION) “inactive; negative”.

On to `CCOC(=O)N(N=O)C(CCC=O)c1cccnc1` (stereo unspecified), for which the mutagenic call under setting [9] was “active; positive”.
